Key:
[1] = target: T1, HCV NS5B polymerase (RdRp) (Hepatitis C virus genotype 1b, UniProt Q9WMX2); assay: HCV NS5B polymerase (RdRp) assay; type: biochemical
T1 construct: HCV NS5B polymerase (RdRp) assay
Experimental: RdRp activity was determined by the incorporation of radiolabeled ribonucleotide into synthesized RNA. […] HCV796 (Southern Research, Frederick, MD) was used as positive control for the assay.

[2] = target: T2, human DNA polymerase β (Homo sapiens, UniProt P06746); assay: Human DNA polymerase inhibition assay, β; type: biochemical
T2 construct: purchased CHIMERx (Madison, WI)
Experimental: The polymerases were purchased from CHIMERx (Madison, WI). Inhibition of DNA polymerase α activity was assayed in microtiter plates in 20 mM Tris-HCl, pH 8, 5 mM Mg acetate, 0.3 mg/mL BSA, 1mM DTT, 0.1 mM spermine, 0.05 mM dCTP, dTTP and dATP, 10 μCi ^32P-α-dGTP (800 Ci/mmol), 20 μg activated calf thymus DNA and the test compound at indicated concentrations. The DNA polymerase β and γ reaction mixture contained 50 mM Tris-HCl, pH 8.7, KCl (10 mM for β and 100 mM for γ), 10 mM MgCl2, 0.4 mg/mL BSA, 1mM DTT, 15% glycerol, 0.05 mM dCTP, dTTP and dATP, 10 μCi ^32P-α-dGTP (800 Ci/mmol), 20 μg activated calf thymus DNA and test compound at the indicated concentrations. For each assay, samples were run in triplicate, and positive controls were included. The enzyme reactions were allowed to proceed for 30 min at 37 °C followed by transfer onto glass-fiber filter plates and subsequent precipitation with 10% trichloroacetic acid (TCA). Plates were washed five times with 5% TCA, once with 95% ethanol and dried. The radioactive content of each filter was measured and used to determine the extent of inhibition of each polymerase.

[3] = tested on: Huh-7 cells; assay: Intracellular metabolism in Huh-7 replicon cells; type: in vitro ADME, human
Experimental: Huh-7 replicon cells. […] At each time point, the media was removed and the cells were washed twice with cold PBS, collected in 1 mL cold 60% MeOH, and extracted overnight at -20°C with internal standard added. […] Untreated cells were collected at each time point as a negative control.
S3 Protocol. LC-MS/MS analysis of AT-511 and metabolites in cultured cells. The supernatant extracts of each hepatocyte and Huh-7 cell incubation were separately analyzed by four different LC-MS/MS methods for quantitation of phosphoramidates, nucleosides, monophosphates, and triphosphates (methods 1, 2, 3 and 4, respectively), using synthetic reference standards of actually and potentially present compounds and using structurally related analogs as internal standards. Briefly, a Luna PFP (2), 5 µm, 100 x 4.6 mm column and an AB Sciex API-6500 mass spectrometer (ESI positive ion, MRM mode) were used for methods 1-3 and an XBridge Oligonucleotide, BEH C18, 2.5 µm, 50 x 2.1 mm column and a Thermo QE Plus mass spectrometer (electrospray, negative ion mode) were used for method 4. For methods 1 and 2, mobile phases A (10 mM ammonium acetate in water) and B (acetonitrile:methanol, 1:1, v/v) were used to elute samples (5 µL) at 1 mL/min with 15% B for 1.5 min followed by a linear gradient to 75% B over 1 min (method 1) or with 54% B for 1.3 min followed by a linear gradient to 90% B over 1.2 min. […]

[4] = Intracellular metabolism in rat hepatocytes; type: in vitro ADME, Sprague Dawley rat
Experimental: Hepatocytes. […] Cryopreserved male mouse (CD1), and fresh male Beagle dog and male cynomolgus monkey hepatocytes were obtained from BioreclamationIVT (Baltimore, MD) and were similarly plated with Matrigel in 6- or 24-well plates and maintained overnight in InVitroGRO™HI medium with Torpedo™ antibiotic (BioreclamationIVT). The protocol described above for measuring AT-511 and its metabolites in Huh-7 cells was repeated with the five different hepatocytes. Untreated cells were collected at 24 h, and the protein content of the cell lysates were determined using a bicinchoninic acid protein assay kit to assess the number of cells in each incubation. Separately, plated human hepatocytes were incubated for 6 h with 100 μM AT-511, followed by washout periods of 0, 2, 6, 18 and 30 h.
S3 Protocol. LC-MS/MS analysis of AT-511 and metabolites in cultured cells. The supernatant extracts of each hepatocyte and Huh-7 cell incubation were separately analyzed by four different LC-MS/MS methods for quantitation of phosphoramidates, nucleosides, monophosphates, and triphosphates (methods 1, 2, 3 and 4, respectively), using synthetic reference standards of actually and potentially present compounds and using structurally related analogs as internal standards. […]

[5] = Rat pharmacokinetic study, plasma; type: in vivo, Sprague-Dawley rat; settings: both sexes, Sprague-Dawley, rat, in vivo, po, 500 mg/kg

T1 sequence (Q9WMX2 2420-3010): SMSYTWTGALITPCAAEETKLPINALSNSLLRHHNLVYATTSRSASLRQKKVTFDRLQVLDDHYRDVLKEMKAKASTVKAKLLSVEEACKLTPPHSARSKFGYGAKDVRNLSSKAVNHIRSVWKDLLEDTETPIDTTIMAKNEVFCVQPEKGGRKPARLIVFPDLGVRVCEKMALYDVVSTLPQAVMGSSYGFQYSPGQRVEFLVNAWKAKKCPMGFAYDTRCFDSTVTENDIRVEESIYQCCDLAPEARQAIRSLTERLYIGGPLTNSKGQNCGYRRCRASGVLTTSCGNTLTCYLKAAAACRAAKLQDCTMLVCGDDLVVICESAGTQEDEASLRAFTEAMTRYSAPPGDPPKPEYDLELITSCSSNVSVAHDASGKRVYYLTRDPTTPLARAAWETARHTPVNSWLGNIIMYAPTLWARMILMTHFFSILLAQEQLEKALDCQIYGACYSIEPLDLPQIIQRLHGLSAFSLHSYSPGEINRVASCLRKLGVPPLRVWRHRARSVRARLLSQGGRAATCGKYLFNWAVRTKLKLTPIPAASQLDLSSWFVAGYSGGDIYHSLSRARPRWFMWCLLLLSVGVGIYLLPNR

Structure (SMILES): C[C@@]1(F)[C@H](O)[C@@H](COP(=O)(O)OP(=O)(O)OP(=O)(O)O)O[C@H]1n1cnc2c(=O)[nH]c(N)nc21 [AT-9010]
- IC50 ([1]; as a competitive inhibitor of ATP, single assay): 40.3 µM
- IC50 ([1]; as an alternate substrate for GTP, mean of two assays): 0.15 µM
- IC50 [2]: > 100 µM
- AUC0-24, intracellular ([3]; 10 μM AT-511): 5051 pmol*h/10^6 cells
- Cmax, intracellular ([3]; 10 μM AT-511, 0-24 h): 420.3 ± 161.4 pmol/10^6 cells
- AUC0-24, intracellular ([4]; 10 μM AT-511): 3114 pmol*h/10^6 cells
- Cmax, intracellular ([4]; 10 μM AT-511, 0-24 h): 192.0 ± 67.3 pmol/10^6 cells

Structure (SMILES): C[C@@]1(F)[C@H](O)[C@@H](CO)O[C@H]1n1cnc2c(=O)[nH]c(N)nc21 [AT-273]
- AUC(0-t) [5]: 40.3 ± 10.9 µM·h
- Cmax [5]: 2500 ± 520 nM
- MRT last [5]: 17.5 ± 2.1 h
- Tmax [5]: 6.34 ± 0.58 h
